{"source": "patent US11191722B2", "about": "“Treatment of diabetes mellitus by long-acting formulations of insulins” (SANOFI, priority 2013, dated 2021)", "test_system": "patients with type 2 diabetes mellitus", "conditions": "in vivo", "from_the_text": "Hypoglycemia, occurrence of adverse events particularly treatment-emergent adverse events (TEAEs) and serious adverse events (SAEs), injection site reactions and hypersensitivity reactions.\nSafety analyses were descriptive, based on the safety population.", "data": [{"substance": "insulin glargine [HOE901-U300]", "values": [{"measurement": "Death on-study during first 6 months", "value": "2 (0.5%) n (%)"}, {"measurement": "Death post-study", "value": "0 n (%)"}]}, {"substance": "insulin glargine [Lantus]", "values": [{"measurement": "Death on-study during first 6 months", "value": "2 (0.5%) n (%)"}, {"measurement": "Death post-study", "value": "0 n (%)"}]}]}
